In patent publication US7906522B2, “2-aminoquinazoline derivatives” (Kyowa Hakko Kirin Co., Ltd, priority 2005, dated 2011) one finds inhibition data, which are given here for 42 compounds.

In the test the target is T1, Activated human p38α (Homo sapiens, UniProt Q16539).
T1 construct: purchased Upstate Biotechnology Inc. 14-251
T1 sequence (Q16539 whole entry): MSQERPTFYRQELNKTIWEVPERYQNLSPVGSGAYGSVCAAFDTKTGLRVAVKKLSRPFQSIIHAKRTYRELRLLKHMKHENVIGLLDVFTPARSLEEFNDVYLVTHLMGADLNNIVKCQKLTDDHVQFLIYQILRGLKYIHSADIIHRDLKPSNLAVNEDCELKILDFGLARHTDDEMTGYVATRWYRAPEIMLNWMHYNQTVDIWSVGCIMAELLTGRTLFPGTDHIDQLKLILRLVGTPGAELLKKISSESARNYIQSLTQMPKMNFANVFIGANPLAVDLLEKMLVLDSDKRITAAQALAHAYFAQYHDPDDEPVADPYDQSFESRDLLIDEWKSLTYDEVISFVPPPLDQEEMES
In words: p38MAP kinase inhibition test. Format: biochemical. The following applies: at a concentration of 1 μmol/L; substrate myelin basic protein, ATP 20 μmol/L, [γ-32P]ATP; read-out: enzyme inhibitory activity. An outline of the steps: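 Radiometric kinase assay with myelin basic protein (20 μg/assay) as substrate, 20 μmol/L ATP plus [γ-32P]ATP, MOPS pH 7.2 with MgCl2 18.75 mmol/L. Reaction run 15 min at 30° C., stopped with phosphoric acid; 32P-MBP captured on phosphocellulose and counted by scintillation.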
For the compound `N[C@H]1CC[C@H](Nc2ncc3cc(-c4ccccc4Cl)c(O)cc3n2)CC1` [Compound 158, 2-(trans-4-Aminocyclohexylamino)-6-(2-chlorophenyl)-7-hydroxyquinazoline], the inhibition at 1 µM is at least 50%.
Take `CC(C)CNc1ncc2cc(-c3ccccc3Cl)c(O)cc2n1` [Compound 160, 6-(2-Chlorophenyl)-7-hydroxy-2-isobutylaminoquinazoline]: the inhibition at 1 µM is at least 50%.
For the compound `CCCS(=O)(=O)N1CCC(Nc2ncc3cc(-c4ccccc4Cl)c(O)cc3n2)CC1` [Compound 162, 6-(2-Chlorophenyl)-7-hydroxy-2-[1-(1-propylsulfonyl)piperidin-4-ylamino]quinazoline], the inhibition at 1 µM is at least 50%.
With `COc1cc2nc(NC3CCN(S(C)(=O)=O)CC3)ncc2cc1-c1ccccc1C` [Compound 164, 7-Methoxy-6-(2-methylphenyl)-2-[1-(methylsulfonyl)piperidin-4-ylamino]quinazoline], the inhibition at 1 µM is at least 50%.
As for `COc1cc2nc(N[C@@H](C)CO)ncc2cc1-c1ccccc1C` [Compound 165, (S)-2-(1-Hydroxy-2-propylamino)-7-methoxy-6-(2-methylphenyl)quinazoline], the figure is at least 50%; as for `CC[C@@H](C)Nc1ncc2cc(-c3ccccc3C)c(OC)cc2n1` [Compound 166, (R)-2-(sec-Butylamino)-7-methoxy-6-(2-methylphenyl)quinazoline], at least 50%; as for `COc1cc2nc(NC(C)(C)C)ncc2cc1-c1ccccc1C` [Compound 167, 2-(tert-Butylamino)-7-methoxy-6-(2-methylphenyl)quinazoline], at least 50%.
As for `COc1cc2nc(N[C@@H](C)C(C)C)ncc2cc1-c1ccccc1C` [Compound 168, (S)-2-(3-methyl-2-butylamino)-7-methoxy-6-(2-methylphenyl)quinazoline], the inhibition at 1 µM was at least 50%.
Regarding `Cc1ccccc1-c1cc2cnc(N[C@@H](C)C3CCCCC3)nc2cc1O` [Compound 172, (S)-2-(1-cyclohexylethylamino)-7-hydroxy-6-(2-methylphenyl)quinazoline], the inhibition at 1 µM was at least 50%.
As to `Cc1ccccc1-c1cc2cnc(N[C@@H](C)C(C)C)nc2cc1O` [Compound 173, (S)-2-(3-methyl-2-butylamino)-7-hydroxy-6-(2-methylphenyl)quinazoline], the inhibition at 1 µM was at least 50%.
Consider `CCCC(CCC)Nc1ncc2cc(-c3ccccc3C)c(O)cc2n1` [Compound 174, 7-Hydroxy-6-(2-methylphenyl)-2-(4-heptylamino)quinazoline], for which the inhibition at 1 µM was at least 50%.
Turning to `Cc1ccccc1-c1cc2cnc(Nc3c(C)cccc3C(C)C)nc2cc1O` [Compound 177, 7-Hydroxy-2-(2-isopropyl-6-methylanilino)-6-(2-methylphenyl)quinazoline], the inhibition at 1 µM was at least 50%.
With `Cc1ccccc1-c1cc2cnc(Nc3c(Cl)cc([N+](=O)[O-])cc3Cl)nc2cc1O` [Compound 179, 2-(2,6-Dichloro-4-nitroanilino)-7-hydroxy-6-(2-methylphenyl)quinazoline], the inhibition at 1 µM is at least 50%.
As for `COc1cc2nc(NC(C)C)ncc2cc1-c1ccccc1CO` [Compound 182, 6-[2-(Hydroxymethyl)phenyl]-2-isopropylamino-7-methoxyquinazoline], the figure is at least 50%; as for `COc1cc2nc(NC(C)C)ncc2cc1-c1ccccc1C#N` [Compound 183, 6-(2-Cyanophenyl)-2-isopropylamino-7-methoxyquinazoline], at least 50%; as for `COc1cc2nc(NC(C)C)ncc2cc1-c1ccccc1C(=O)O` [Compound 185, 6-(2-Carboxyphenyl)-2-isopropylamino-7-methoxyquinazoline], at least 50%.
With `COc1cc2nc(NC(C)C)ncc2cc1-c1ccccc1O` [Compound 186, 6-(2-Hydroxyphenyl)-2-isopropylamino-7-methoxyquinazoline], the inhibition at 1 µM is at least 50%.
Take `COc1cc2nc(NC(C)C)ncc2cc1-c1ccccc1C(C)=O` [Compound 187, 6-(2-Acetylphenyl)-2-isopropylamino-7-methoxyquinazoline]: the inhibition at 1 µM was at least 50%.
For the compound `COc1cc2nc(NC(C)C)ncc2cc1-c1ccccc1C(=O)N1CCOCC1` [Compound 188, 2-Isopropylamino-7-methoxy-6-[2-(morpholinocarbonyl)phenyl]quinazoline], the inhibition at 1 µM is at least 50%.
As for `COc1cc2nc(NC(C)C)ncc2cc1-c1ccccc1F` [Compound 190, 6-(2-Fluorophenyl)-2-isopropylamino-7-methoxyquinazoline], the inhibition at 1 µM is at least 50%.
For `COc1cc2nc(NC(C)C)ncc2cc1-c1ccccc1C` [Compound 191, 2-Isopropylamino-7-methoxy-6-(2-methylphenyl)quinazoline] the value was at least 50%.
For the compound `COc1cc2nc(NC(C)C)ncc2cc1-c1ccccc1C(F)(F)F` [Compound 192, 2-Isopropylamino-7-methoxy-6-(2-trifluoromethylphenyl)quinazoline], the inhibition at 1 µM was at least 50%.
Consider `COc1ccccc1-c1cc2cnc(NC(C)C)nc2cc1OC` [Compound 193, 2-Isopropylamino-7-methoxy-6-(2-methoxyphenyl)quinazoline], for which the inhibition at 1 µM is at least 50%.
With `COc1cc2nc(NC(C)C)ncc2cc1-c1cccc(OCc2ccccc2)c1` [Compound 195, 6-[3-(Benzyloxy)phenyl]-2-isopropylamino-7-methoxyquinazoline], the inhibition at 1 µM was at least 50%.
For the compound `COc1cc2nc(NC(C)C)ncc2cc1-c1cccc(O)c1` [Compound 196, 6-(3-Hydroxyphenyl)-2-isopropylamino-7-methoxyquinazoline], the inhibition at 1 µM was at least 50%.
As for `COc1cc2nc(NC(C)C)ncc2cc1-c1cccc(C=O)c1` [Compound 197, 6-(3-Formylphenyl)-2-isopropylamino-7-methoxyquinazoline], the figure is at least 50%; as for `COc1cc2nc(NC(C)C)ncc2cc1-c1cccc(C(C)=O)c1` [Compound 199, 6-(3-Acetylphenyl)-2-isopropylamino-7-methoxyquinazoline], at least 50%.
As for `COc1cccc(-c2cc3cnc(NC(C)C)nc3cc2OC)c1` [Compound 201, 2-Isopropylamino-7-methoxy-6-(3-methoxyphenyl)quinazoline], the inhibition at 1 µM is at least 50%.
In the case of `COc1cc2nc(NC(C)C)ncc2cc1-c1cccc(OC(C)=O)c1` [Compound 202, 6-(3-Acetoxyphenyl)-2-isopropylamino-7-methoxyquinazoline], the inhibition at 1 µM is at least 50%.
Regarding `COc1cc2nc(NC(C)C)ncc2cc1-c1cccc(C)c1` [Compound 203, 2-Isopropylamino-7-methoxy-6-(3-methylphenyl)quinazoline], the inhibition at 1 µM is at least 50%.
Turning to `COc1cc2nc(NC(C)C)ncc2cc1-c1cccc(F)c1` [Compound 204, 6-(3-Fluorophenyl)-2-isopropylamino-7-methoxyquinazoline], the inhibition at 1 µM is at least 50%.
For `COc1cc2nc(NC(C)C)ncc2cc1-c1ccc(F)cc1C` [Compound 206, 6-(4-Fluoro-2-methylphenyl)-2-isopropylamino-7-methoxyquinazoline] the value was at least 50%; for `COc1cc2nc(NC(C)C)ncc2cc1-c1cccc(OC)c1F` [Compound 207, 6-(2-Fluoro-3-methoxyphenyl)-2-isopropylamino-7-methoxyquinazoline], at least 50%; for `COc1cc2nc(NC(C)C)ncc2cc1-c1ccco1` [Compound 208, 6-(2-Furyl)-2-isopropylamino-7-methoxyquinazoline], at least 50%.
Turning to `COc1cc2nc(NC(C)C)ncc2cc1-c1cccc(NC(=O)c2ccc[nH]2)c1` [Compound 209, 2-Isopropylamino-7-methoxy-6-{3-[(1H-pyrrol-2-yl)carbonylamino]phenyl}quinazoline], the inhibition at 1 µM was at least 50%.
On to `COc1cc2nc(NC(C)C)ncc2cc1-c1cccc(NC(=O)Nc2ccccc2)c1` [Compound 210, 2-Isopropylamino-7-methoxy-6-[3-(3-phenylureido)phenyl]quinazoline], for which the inhibition at 1 µM is at least 50%.
As to `COc1cc2nc(NC(C)C)ncc2cc1-c1cccc(NC(=O)c2cc3ccccc3[nH]2)c1` [Compound 211, 6-{3-[(1H-indol-2-yl)carbonylamino]phenyl}-2-isopropylamino-7-methoxyquinazoline], the inhibition at 1 µM is at least 50%.
As to `CNC(=O)Nc1cccc(-c2cc3cnc(NC(C)C)nc3cc2OC)c1` [Compound 212, 2-Isopropylamino-7-methoxy-6-[3-(3-methylureido)phenyl]quinazoline], the inhibition at 1 µM was at least 50%.
`COc1cc2nc(NC(C)C)ncc2cc1-c1cccc(NC(=O)c2ccc(C(F)(F)F)cc2)c1` [Compound 213, 2-Isopropylamino-7-methoxy-6-{3-[(4-trifluoromethylphenyl)carbonylamino]phenyl}quinazoline]: the inhibition at 1 µM is at least 50%.
As for `COc1cc2nc(NC(C)C)ncc2cc1-c1cccc(NC(=O)c2ccc(OC(F)(F)F)cc2)c1` [Compound 214, 2-Isopropylamino-7-methoxy-6-{3-[(4-trifluoromethoxyphenyl)carbonylamino]phenyl}quinazoline], the inhibition at 1 µM was at least 50%.
Turning to `COc1cc2nc(NC(C)C)ncc2cc1-c1cccc(NC(=O)c2ccncc2)c1` [Compound 215, 2-Isopropylamino-7-methoxy-6-{3-[(4-pyridyl)carbonylamino]phenyl}quinazoline], the inhibition at 1 µM is at least 50%.
For `COc1cc2nc(NC(C)C)ncc2cc1-c1cccc(NC(=O)c2cccc(C(F)(F)F)c2)c1` [Compound 216, 2-Isopropylamino-7-methoxy-6-{3-[(3-trifluoromethylphenyl)carbonylamino]phenyl}quinazoline] the value was at least 50%.
